Measured values: US10729132B2, “Xylophage control using antimethanogenic reagents” (Environmental Intellectual Property, Inc, priority 2015, dated 2020)

What was measured:
Archaea = assay: Laboratory Study 5: methane concentration in control and test samples with AMRs
Protocol: Use of diallyl sulfide, which may be considered a synthetic garlic oil (GOS), was evaluated for its ability to control Archaea compared to the effects of other potential AMRs such as natural/pressed Garlic Oil (GO) and dehydrated Garlic Powder (GP). Control samples with and without contaminants were captured along with test samples that included contaminants and different concentrations (250 ppm and 500 ppm) of different AMRs (GO, GOS and GP). The concentration of methane in each of the samples was measured at 0, 9, 16 and 23 days.

[1] = test system: F420-dependent NADP oxidoreductase enzyme from M. smithii; details: compared to the natural ligand F420; cited from earlier work

Row | SMILES | length and magnitude of antimethanogenic responses (Archaea; 500 ppm lasting longer than 250 ppm) | control response in terms of methane production (Archaea; after 23 days incubation, 250 ppm and 500 ppm) | affinity for the model protein [1]
1 | C=CCSCC=C [GOS, diallyl sulfide] | concentration dependent | best control response | 
2 | CC[C@H](C)C(=O)O[C@H]1CCC=C2C=C[C@H](C)[C@H](CC[C@@H]3C[C@@H](O)CC(=O)O3)[C@H]21 [compactin] |  |  | more affinity
3 | CC[C@H](C)C(=O)O[C@H]1C[C@@H](C)C=C2C=C[C@H](C)[C@H](CC[C@@H]3C[C@@H](O)CC(=O)O3)[C@H]21 [lovastatin] |  |  | more affinity
